Reference: the NIST ThermoML archive (doi:10.1016/j.jct.2012.03.003)
± gives the expanded uncertainty stated by the source.

Experiment: xn = mol fraction of the nth substance listed
Details: Liquid, Vibrating tube method

COc1cc2c(cc1O)CC1c3c(cc(O)c(OC)c3-2)CCN1C (stereo not given) [boldine] + CCCO
mass density (333.04 K, 7000 kPa, x1 = 0.0077): 789.55 ± 0.68 kg/m3
mass density (333.04 K, 7000 kPa, x1 = 0.0112): 796.25 ± 0.73 kg/m3
mass density (333.04 K, 7000 kPa, x1 = 0.0142): 800.8 ± 0.64 kg/m3
mass density (333.04 K, 8000 kPa, x1 = 0.0018): 780.38 ± 0.93 kg/m3
mass density (333.04 K, 8000 kPa, x1 = 0.0077): 790.45 ± 0.68 kg/m3
mass density (333.04 K, 8000 kPa, x1 = 0.0112): 797.14 ± 0.73 kg/m3
mass density (333.04 K, 8000 kPa, x1 = 0.0142): 801.7 ± 0.65 kg/m3
mass density (333.04 K, 9000 kPa, x1 = 0.0018): 781.29 ± 0.93 kg/m3
mass density (333.04 K, 9000 kPa, x1 = 0.0077): 791.35 ± 0.68 kg/m3
mass density (333.04 K, 9000 kPa, x1 = 0.0112): 798.03 ± 0.73 kg/m3
mass density (333.04 K, 9000 kPa, x1 = 0.0142): 802.57 ± 0.65 kg/m3
mass density (333.04 K, 10000 kPa, x1 = 0.0018): 782.18 ± 0.93 kg/m3
mass density (333.04 K, 10000 kPa, x1 = 0.0077): 792.22 ± 0.69 kg/m3
mass density (333.04 K, 10000 kPa, x1 = 0.0112): 798.91 ± 0.74 kg/m3
mass density (333.04 K, 10000 kPa, x1 = 0.0142): 803.44 ± 0.65 kg/m3
mass density (333.04 K, 11000 kPa, x1 = 0.0018): 783.07 ± 0.94 kg/m3
mass density (333.04 K, 11000 kPa, x1 = 0.0077): 793.11 ± 0.69 kg/m3
mass density (333.04 K, 11000 kPa, x1 = 0.0112): 799.78 ± 0.74 kg/m3
mass density (333.04 K, 11000 kPa, x1 = 0.0142): 804.31 ± 0.65 kg/m3
mass density (333.04 K, 12000 kPa, x1 = 0.0018): 783.97 ± 0.94 kg/m3
mass density (333.04 K, 12000 kPa, x1 = 0.0077): 793.99 ± 0.69 kg/m3
mass density (333.04 K, 12000 kPa, x1 = 0.0112): 800.64 ± 0.74 kg/m3
mass density (333.04 K, 12000 kPa, x1 = 0.0142): 805.16 ± 0.66 kg/m3
mass density (333.04 K, 13000 kPa, x1 = 0.0018): 784.84 ± 0.94 kg/m3
mass density (333.04 K, 13000 kPa, x1 = 0.0077): 794.86 ± 0.69 kg/m3
mass density (333.04 K, 13000 kPa, x1 = 0.0112): 801.49 ± 0.74 kg/m3
mass density (333.04 K, 13000 kPa, x1 = 0.0142): 806.02 ± 0.66 kg/m3
mass density (333.04 K, 14000 kPa, x1 = 0.0018): 785.7 ± 0.94 kg/m3
mass density (333.04 K, 14000 kPa, x1 = 0.0077): 795.71 ± 0.7 kg/m3
mass density (333.04 K, 14000 kPa, x1 = 0.0112): 802.35 ± 0.75 kg/m3
mass density (333.04 K, 14000 kPa, x1 = 0.0142): 806.86 ± 0.66 kg/m3
mass density (333.04 K, 15000 kPa, x1 = 0.0018): 786.56 ± 0.95 kg/m3
mass density (333.04 K, 15000 kPa, x1 = 0.0077): 796.55 ± 0.7 kg/m3
mass density (333.04 K, 15000 kPa, x1 = 0.0112): 803.19 ± 0.75 kg/m3
mass density (333.04 K, 15000 kPa, x1 = 0.0142): 807.69 ± 0.67 kg/m3
mass density (333.04 K, 16000 kPa, x1 = 0.0018): 787.41 ± 0.95 kg/m3
mass density (333.04 K, 16000 kPa, x1 = 0.0077): 797.38 ± 0.7 kg/m3
mass density (333.04 K, 16000 kPa, x1 = 0.0112): 804 ± 0.75 kg/m3
mass density (333.04 K, 16000 kPa, x1 = 0.0142): 808.51 ± 0.67 kg/m3
mass density (333.04 K, 17000 kPa, x1 = 0.0018): 788.23 ± 0.95 kg/m3
mass density (333.04 K, 17000 kPa, x1 = 0.0077): 798.2 ± 0.71 kg/m3
mass density (333.04 K, 17000 kPa, x1 = 0.0112): 804.81 ± 0.75 kg/m3
mass density (333.04 K, 17000 kPa, x1 = 0.0142): 809.32 ± 0.67 kg/m3
mass density (333.04 K, 18000 kPa, x1 = 0.0018): 789.05 ± 0.95 kg/m3
mass density (333.04 K, 18000 kPa, x1 = 0.0077): 799.02 ± 0.71 kg/m3
mass density (333.04 K, 18000 kPa, x1 = 0.0112): 805.61 ± 0.76 kg/m3
mass density (333.04 K, 18000 kPa, x1 = 0.0142): 810.12 ± 0.68 kg/m3
mass density (333.04 K, 19000 kPa, x1 = 0.0018): 789.86 ± 0.95 kg/m3
mass density (333.04 K, 19000 kPa, x1 = 0.0077): 799.81 ± 0.71 kg/m3
mass density (333.04 K, 19000 kPa, x1 = 0.0112): 806.39 ± 0.76 kg/m3
mass density (333.04 K, 19000 kPa, x1 = 0.0142): 810.91 ± 0.68 kg/m3
mass density (333.04 K, 20000 kPa, x1 = 0.0018): 790.65 ± 0.96 kg/m3
mass density (333.04 K, 20000 kPa, x1 = 0.0077): 800.56 ± 0.72 kg/m3
mass density (333.04 K, 20000 kPa, x1 = 0.0112): 807.16 ± 0.76 kg/m3
mass density (333.04 K, 20000 kPa, x1 = 0.0142): 811.68 ± 0.69 kg/m3
mass density (333.07 K, 1000 kPa, x1 = 0.0046): 780.3 ± 0.7 kg/m3
mass density (333.07 K, 2000 kPa, x1 = 0.0046): 781.23 ± 0.7 kg/m3
mass density (333.07 K, 3000 kPa, x1 = 0.0046): 782.1 ± 0.7 kg/m3
mass density (333.07 K, 4000 kPa, x1 = 0.0046): 783.02 ± 0.71 kg/m3
mass density (333.07 K, 5000 kPa, x1 = 0.0046): 783.92 ± 0.71 kg/m3
mass density (333.07 K, 6000 kPa, x1 = 0.0046): 784.83 ± 0.71 kg/m3
mass density (333.07 K, 7000 kPa, x1 = 0.0046): 785.74 ± 0.71 kg/m3
mass density (333.07 K, 8000 kPa, x1 = 0.0046): 786.64 ± 0.72 kg/m3
mass density (333.07 K, 9000 kPa, x1 = 0.0046): 787.54 ± 0.72 kg/m3
mass density (333.07 K, 10000 kPa, x1 = 0.0046): 788.44 ± 0.72 kg/m3
mass density (333.07 K, 11000 kPa, x1 = 0.0046): 789.33 ± 0.72 kg/m3
mass density (333.07 K, 12000 kPa, x1 = 0.0046): 790.21 ± 0.73 kg/m3
mass density (333.07 K, 13000 kPa, x1 = 0.0046): 791.08 ± 0.73 kg/m3
mass density (333.07 K, 14000 kPa, x1 = 0.0046): 791.94 ± 0.73 kg/m3
mass density (333.07 K, 15000 kPa, x1 = 0.0046): 792.79 ± 0.74 kg/m3
mass density (333.07 K, 16000 kPa, x1 = 0.0046): 793.62 ± 0.74 kg/m3
mass density (333.07 K, 17000 kPa, x1 = 0.0046): 794.45 ± 0.74 kg/m3
mass density (333.07 K, 18000 kPa, x1 = 0.0046): 795.27 ± 0.75 kg/m3
mass density (333.07 K, 19000 kPa, x1 = 0.0046): 796.06 ± 0.75 kg/m3
mass density (333.07 K, 20000 kPa, x1 = 0.0046): 796.84 ± 0.75 kg/m3
